Laboratory results as given in paper PMC6037852, “Design of Diarylheptanoid Derivatives as Dual Inhibitors Against Class IIa Histone Deacetylase and β-amyloid Aggregation” (Frontiers in Pharmacology, 2018).

Assays:
Aβ1-42 = target: T1, Aβ1-42 (Homo sapiens, UniProt P05067); assay: Inhibition of Aβ1-42 self-aggregation, thioflavin-T (ThT) fluorescence assay; assay type: biochemical; conditions: 24 h; for IC50: read-out: Beta-Amyloid Aggregation IC50; for inhibition at 10 µM: single concentration of 10 μM, read-out: Beta-Amyloid Aggregation Inhibition (%)
T1 construct: Aβ1-42 peptides were purchased from Kelowna International Scientific Inc; purchased Kelowna International Scientific Inc
T1 sequence (P05067 672-713 limits assumed): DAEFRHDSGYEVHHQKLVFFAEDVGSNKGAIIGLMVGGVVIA
Protocol: Inhibition of Aβ1-42 self-aggregation was measured by thioflavin-T (ThT) fluorescence assay ([Hudson et al., 2009]). Aβ1-42 peptides were purchased from Kelowna International Scientific Inc. To avoid Aβ1-42 self-aggregation before the start of the experiment, Aβ1-42 peptides were dissolved in hexafluoroisopropanol (HFIP) to a concentration of 1 mM. The clear solution containing the dissolved peptide was then aliquoted in micro centrifuge tube. The solution was evaporated under vacuum to remove HFIP to give monomeric Aβ1-42. The monomeric Aβ1-42 was dissolved in NaOH(aq) (60 mM) to give a stock solution (1 mM). The Aβ1-42 stock solution was diluted with 50 mM phosphate buffer (containing 0.15 M NaCl, pH 7.4) before use. Fresh ThT stock solution was prepared by dissolving ThT (Sigma, T3516) in phosphate buffer and filtrated through […] Nylon syringe filter. The ThT stock solution and 400 mM ethylenediaminetetraacetic acid (EDTA) were diluted into the phosphate buffer to generate the working solution as background. A mixture of working solution (ThT final concentration: 10 μM), Aβ1-42 stock solution (Aβ1-42 final concentration: 10 μM) and the tested compounds were incubated on BioShake iQ ThermoMixer (37°C, 700 rpm) for 24 h. Fluorescence was measured by Victor 2X microplate spectrophotometer (excitation λ = 440 nm, emission λ = 486 nm), and adapted for 96-well microtiter plates. The fluorescence intensities were recorded and the percent inhibition due to the presence of the inhibitors were calculated by the following formula: (1 - IFi/IFc) × 100% where IFi and IFc were the fluorescence intensities obtained for Aβ1-42 in the presence and in the absence of inhibitors after subtracting the background, respectively. The IC50 values were calculated by the linear regression model of the data. All experiments were performed in triplicate.

HDAC7 = target: T2, HDAC7 (Homo sapiens, UniProt Q8WUI4); assay: HDAC fluorometric activity assay, HDAC7; conditions: IC50 Class IIa HDAC7, fluorogenic HDAC class IIa substrate 10 μM
T2 sequence (Q8WUI4 1-952): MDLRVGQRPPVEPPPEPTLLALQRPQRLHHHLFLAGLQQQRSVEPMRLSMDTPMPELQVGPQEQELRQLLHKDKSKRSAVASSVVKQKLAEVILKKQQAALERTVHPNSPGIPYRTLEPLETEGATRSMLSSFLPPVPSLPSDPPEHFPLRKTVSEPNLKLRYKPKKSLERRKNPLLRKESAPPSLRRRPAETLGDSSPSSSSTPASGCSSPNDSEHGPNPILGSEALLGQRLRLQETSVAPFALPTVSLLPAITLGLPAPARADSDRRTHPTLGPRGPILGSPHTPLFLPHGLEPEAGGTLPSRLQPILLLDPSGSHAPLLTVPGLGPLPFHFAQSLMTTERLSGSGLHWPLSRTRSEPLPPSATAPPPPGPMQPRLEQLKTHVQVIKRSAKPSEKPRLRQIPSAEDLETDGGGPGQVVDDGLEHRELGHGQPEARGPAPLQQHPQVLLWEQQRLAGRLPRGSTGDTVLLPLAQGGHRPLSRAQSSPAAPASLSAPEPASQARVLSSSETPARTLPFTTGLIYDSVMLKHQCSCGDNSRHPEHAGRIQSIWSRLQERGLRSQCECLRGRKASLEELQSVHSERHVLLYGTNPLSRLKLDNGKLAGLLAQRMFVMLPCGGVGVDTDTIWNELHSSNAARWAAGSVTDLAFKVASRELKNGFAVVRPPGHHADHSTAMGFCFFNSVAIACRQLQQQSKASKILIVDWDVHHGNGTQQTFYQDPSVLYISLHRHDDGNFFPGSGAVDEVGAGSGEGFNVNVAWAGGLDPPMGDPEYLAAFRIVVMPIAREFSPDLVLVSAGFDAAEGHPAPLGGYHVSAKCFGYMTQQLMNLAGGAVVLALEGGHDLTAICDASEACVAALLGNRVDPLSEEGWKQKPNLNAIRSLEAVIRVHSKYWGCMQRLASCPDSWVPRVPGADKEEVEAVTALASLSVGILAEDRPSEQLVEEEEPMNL

HDAC4 = target: T3, HDAC4 (Homo sapiens, UniProt P56524); assay: HDAC fluorometric activity assay, HDAC4; assay type: biochemical; conditions: Boc-Lys(TFA)-AMC 10 μM; read-out: IC50 Class IIa HDAC4
T3 construct: Genes encoding HDAC4 (residues 648–1057) flanked with NdeI and EcoRI sites; made in house; host or cells: E. coli BL21(DE3)
T3 sequence (P56524 648-1057): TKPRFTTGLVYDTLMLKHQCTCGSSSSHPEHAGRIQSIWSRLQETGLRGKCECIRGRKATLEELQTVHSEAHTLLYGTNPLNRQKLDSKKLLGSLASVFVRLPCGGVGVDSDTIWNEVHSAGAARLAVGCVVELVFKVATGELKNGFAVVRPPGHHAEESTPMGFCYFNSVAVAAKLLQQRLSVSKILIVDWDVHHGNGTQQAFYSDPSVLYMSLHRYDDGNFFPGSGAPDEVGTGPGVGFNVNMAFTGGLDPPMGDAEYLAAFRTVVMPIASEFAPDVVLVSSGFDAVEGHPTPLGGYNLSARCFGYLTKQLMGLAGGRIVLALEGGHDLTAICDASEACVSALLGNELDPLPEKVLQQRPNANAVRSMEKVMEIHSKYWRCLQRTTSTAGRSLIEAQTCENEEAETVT
Protocol: Proteins were expressed in BL21(DE3) cells by overnight induction with IPTG (1 mM) at 20–25°C and purified from cleared cell lysates by sequential chromatography on Ni-Sepharose 6 fast flow, Mono Q 5/50 GL, and Superdex 75 10/300 GL columns (GE Healthcare). Protein concentrations were quantified with Bradford Reagent (Bio-Rad).
Enzyme, inhibitors and substrate were diluted with HDAC buffer (15 mM Tris-HCl pH 8.1, 0.25 mM EDTA, 250 mM NaCl, 10% v:v glycerol). Briefly, 10 μL diluted HDAC, i.e., HeLa nuclear extract (Enzo), HDAC6 (BPS), HDAC4, HDAC5 (BPS), HDAC7 (BPS) and HDAC9 (BPS), as well as 50 μL of testing compounds at different concentrations were added to each well of a 96-well microtiter plate and pre-incubated at 30°C for 5 min. […] The fluorescence in wells without test compounds (0.1% DMSO, negative control) was set as 100% enzymatic activity and the fluorescence in wells with enzyme eliminated was set as 0% enzymatic activity. The fluorescence ratio of test compounds to negative control was defined as percentage of remaining enzyme activity. The IC50 values were calculated by linear regression of the data. All experiments were performed in triplicate.

HDAC9 = HDAC9 (Homo sapiens, UniProt Q9UKV0); assay: HDAC fluorometric activity assay, HDAC9
Chain of HDAC9 (Q9UKV0 whole entry): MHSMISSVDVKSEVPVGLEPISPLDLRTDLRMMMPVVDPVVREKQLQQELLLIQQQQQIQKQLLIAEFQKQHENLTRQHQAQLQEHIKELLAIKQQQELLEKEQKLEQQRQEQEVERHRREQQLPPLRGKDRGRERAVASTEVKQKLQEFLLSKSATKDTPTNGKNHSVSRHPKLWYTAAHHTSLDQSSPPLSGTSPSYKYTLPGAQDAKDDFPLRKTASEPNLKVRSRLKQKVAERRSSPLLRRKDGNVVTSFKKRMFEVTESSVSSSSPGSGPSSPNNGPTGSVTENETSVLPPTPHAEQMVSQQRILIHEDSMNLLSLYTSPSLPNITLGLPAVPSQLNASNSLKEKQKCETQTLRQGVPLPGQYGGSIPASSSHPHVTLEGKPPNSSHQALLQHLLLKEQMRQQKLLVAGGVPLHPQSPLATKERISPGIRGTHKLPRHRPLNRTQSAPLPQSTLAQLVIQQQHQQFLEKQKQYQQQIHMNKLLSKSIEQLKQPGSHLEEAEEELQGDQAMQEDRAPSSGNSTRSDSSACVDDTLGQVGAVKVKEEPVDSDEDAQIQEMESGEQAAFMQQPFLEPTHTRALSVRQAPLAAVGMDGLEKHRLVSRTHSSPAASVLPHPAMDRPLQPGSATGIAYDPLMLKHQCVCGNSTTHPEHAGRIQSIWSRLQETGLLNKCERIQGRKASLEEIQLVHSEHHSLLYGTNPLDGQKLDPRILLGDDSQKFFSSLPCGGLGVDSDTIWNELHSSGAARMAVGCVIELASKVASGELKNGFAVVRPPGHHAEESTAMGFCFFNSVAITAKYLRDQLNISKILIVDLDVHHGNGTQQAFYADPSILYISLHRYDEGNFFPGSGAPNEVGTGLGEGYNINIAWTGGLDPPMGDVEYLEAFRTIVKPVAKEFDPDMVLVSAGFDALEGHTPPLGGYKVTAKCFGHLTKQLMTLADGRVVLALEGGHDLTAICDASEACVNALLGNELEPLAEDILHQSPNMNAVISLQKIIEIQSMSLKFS

HeLa nuclear HDACs = assay: HDAC fluorometric activity assay, HeLa nuclear extract; conditions: read-out: IC50 HeLa Nuclear HDACs; Boc-Lys(Ac)-AMC 10 μM

| Structure (SMILES) | IC50 (Aβ1-42) [µM] | inhibition at 10 µM (Aβ1-42) [%] | IC50 (HDAC7) [µM] | IC50 (HDAC4) [µM] | IC50 (HDAC9) [µM] | IC50 (HeLa nuclear HDACs) [µM] |
| --- | --- | --- | --- | --- | --- | --- |
| O=C(/C=C/c1ccccc1)CCCCc1ccccc1 [Compound 4a] | > 10 | 11.9 ± 1 | > 40 | > 40 | > 40 | > 40 |
| O=C(/C=C/c1ccc(O)cc1)CCCCc1ccccc1 [Compound 4b] | > 10 | 28.7 ± 6.3 | > 40 | > 40 | > 40 | > 40 |
| O=C(/C=C/c1ccc(O)c(O)c1)CCCCc1ccccc1 [Compound 4c] | 6.1 ± 1.3 | 76.2 ± 2.7 | 8.4 ± 0.3 | 30.5 ± 0.7 | 17.6 ± 0.3 | > 40 |
| O=C(/C=C/c1cccc(O)c1)CCCCc1ccccc1 [Compound 4d] | > 10 | 0.7 ± 1.5 | > 40 | > 40 | > 40 | > 40 |
| O=C(/C=C/c1cccc(O)c1O)CCCCc1ccccc1 [Compound 4e] | 3.4 ± 0.6 | 91.7 ± 2.5 | 8.6 ± 1 | 38.8 ± 0.1 | 18.1 ± 0.4 | > 40 |
| O=C(/C=C/c1ccc(O)c(F)c1)CCCCc1ccccc1 [Compound 4f] | > 10 | 34.9 ± 9.2 | > 40 | > 40 | > 40 | > 40 |
| O=C(/C=C/c1ccc(O)c(Cl)c1)CCCCc1ccccc1 [Compound 4g] | > 10 | 27.8 ± 7.1 | > 40 | > 40 | > 40 | > 40 |
| O=C(/C=C/c1ccc(O)c(Br)c1)CCCCc1ccccc1 [Compound 4h] | > 10 | 28.1 ± 2.1 | > 40 | > 40 | > 40 | > 40 |
| O=C(/C=C/c1ccc(O)c([N+](=O)[O-])c1)CCCCc1ccccc1 [Compound 4i] | > 10 | 49 ± 2.9 | 32.7 ± 2.1 | > 40 | > 40 | > 40 |
| O=C(/C=C/c1cc(O)c(O)c(O)c1)CCCCc1ccccc1 [Compound 4j] | 3.6 ± 1 | 78.7 ± 6.2 | 3.8 ± 0.4 | > 40 | 15.4 ± 1.8 | > 40 |
| COc1cc(/C=C/C(=O)CCCCc2ccccc2)ccc1O [Compound 4k] | > 10 | 23.1 ± 6.4 | > 40 | > 40 | > 40 | > 40 |
| O=C(CCCCc1ccccc1)CCc1ccccc1 [Compound 5a] | > 10 | 14 ± 3 | > 40 | > 40 | > 40 | > 40 |
| O=C(CCCCc1ccccc1)CCc1ccc(O)cc1 [Compound 5b] | > 10 | 30.4 ± 1 | > 40 | > 40 | > 40 | > 40 |
| O=C(CCCCc1ccccc1)CCc1ccc(O)c(O)c1 [Compound 5c] | 5.8 ± 0.2 | 67.8 ± 3.4 | 4.3 ± 0.5 | 18.1 ± 0.8 | 5.3 ± 0.3 | > 40 |
| O=C(CCCCc1ccccc1)CCc1cccc(O)c1 [Compound 5d] | > 10 | -22.1 ± 2 | > 40 | > 40 | > 40 | > 40 |
| O=C(CCCCc1ccccc1)CCc1cccc(O)c1O [Compound 5e] | 6 ± 0.9 | 65.9 ± 0.2 | 8.7 ± 0.7 | 35.9 ± 0.1 | 9.3 ± 0.8 | > 40 |
| O=C(CCCCc1ccccc1)CCc1ccc(O)c(F)c1 [Compound 5f] | > 10 | 22.1 ± 11.1 | > 40 | > 40 | > 40 | > 40 |
| O=C(CCCCc1ccccc1)CCc1ccc(O)c(Cl)c1 [Compound 5g] | > 10 | 17.8 ± 2.8 | 30.7 ± 0.7 | 29.9 ± 2.3 | > 40 | > 40 |
| O=C(CCCCc1ccccc1)CCc1ccc(O)c(Br)c1 [Compound 5h] | > 10 | 1 ± 3 | > 40 | > 40 | > 40 | > 40 |
| COc1cc(CCC(=O)CCCCc2ccccc2)ccc1O [Compound 5i] | > 10 | 4.6 ± 11.7 | > 40 | > 40 | > 40 | > 40 |
| O=C(/C=C/c1ccc(O)c(O)c1)c1ccccc1 [Compound 7a] | 2.3 ± 0.2 | 83.1 ± 1.9 | 9.6 ± 0.2 | 31.1 ± 0.8 | 18.4 ± 0.6 | > 40 |
| O=C(/C=C/c1ccc(O)c(O)c1)Cc1ccccc1 [Compound 7b] | 2.1 ± 0.2 | 79.4 ± 2.6 | 15.4 ± 3 | 39.8 ± 0.2 | 29.2 ± 1.7 | > 40 |
| O=C(/C=C/c1ccc(O)c(O)c1)CCc1ccccc1 [Compound 7c] | 3.4 ± 0.4 | 83.7 ± 0.8 | 13.6 ± 1.1 | 38.3 | 36.8 ± 0.7 | > 40 |
| O=C(/C=C/c1ccc(O)c(O)c1)CCCc1ccccc1 [Compound 7d] | 3.1 ± 0.3 | 74 ± 9.5 | 9.4 ± 0.2 | 35 ± 2.8 | 17.3 ± 0.1 | > 40 |
| O=C(CCc1ccc(O)c(O)c1)c1ccccc1 [Compound 8a] | 8.6 ± 1.1 | 66.4 ± 1 | 12 ± 1 | > 40 | 14.2 ± 1.6 | > 40 |
| O=C(CCc1ccc(O)c(O)c1)Cc1ccccc1 [Compound 8b] | 8.1 ± 1.2 | 68.6 ± 4.1 | 13.7 ± 0.7 | > 40 | 37.1 ± 0.9 | > 40 |
